According to US9927437B2, “Treating neurodegenerative disease” (THE BRIGHAM AND WOMEN'S HOSPITAL, INC., priority 2013, dated 2018):
Entries after “also recorded” stand apart in the source; their conditions may differ.

Columns and labels:
EAE NOD mice = assay: EAE in NOD mice, progressive phase (clinical score, histopathology, body weight); type: in vivo
NF-κB (P65) = assay: NF-κB translocation to the nucleus in astrocytes (western blot); type: cell-based, mouse; conditions: LPS/IFNγ; for translocation of NF-κB to the nucleus: cultured astrocytes
Experimental: FIGS. 14a-g. B4GALT6 directly controls astrocyte activation. (a) Cultured astrocytes were pre-treated for 1 h with PDMP (25 μM), LacCer (10 μM), both (LacCer+PDMP), or vehicle control (vehicle), followed by activation with LPS/IFNγ for 6 h, or left un-treated (control, Con). mRNA expression was analyzed 6 h following activation. qPCR analysis of the expression of cc/5, csf2, nos2, il6, H2-Aa, and tlr2 presented relative to gapdh. Statistical analysis by one-way ANOVA, followed by Tukey post-hoc analysis. (b, c) Cultured astrocytes were pre-treated for 1 h with LacCer (b) or PDMP (c), at indicated concentrations, followed by activation with LPS/IFNγ, or left un-treated (control, Con). Cell viability was determined 6 h after activation. […] Working concentrations (as in a) are marked in red. (d) The expression of B4galt6 (shB4galt6) or non-targeting shRNA (ShControl) in primary astrocytes was knocked-down using verified shRNA. Astrocytes were then pre-treated for 1 h with PDMP, or vehicle control (vehicle), followed by activation with LPS/IFNγ for 6 h, or left un-treated (control, Con). mRNA expression for H2-Aa, Ccl5 and Cxcl10 was determined; expression is presented as fold induction relative to housekeeping gene (Gapdh). Statistical analysis by one-way ANOVA, followed by Tukey post-hoc analysis (n≥3). […] (f) NF-κB (P65), GAPDH, and Lamin B expression, in cytoplasmic and nuclear fractions analyzed by western blot. The degree of NF-κB translocation to the nucleus was assessed by the ratio between the expression of P65 in nuclear and cytoplasmic fractions following densitometric quantification on four independent experiments (Right panel). […] (g) Expression of CCL-2 or iNOS in IRF-1^+ GFAP^+ astrocytes determined by IF during chronic EAE. […]
Astrocytes were treated as indicated, and total extracts (30 μg of protein), or the nuclear and cytoplasmic subcellular fractionations of cells, were separated by NuPAGE 10% Bis-Tris Gel (Invitrogen), and electroblotted onto supported nitrocellulose membrane. […] Data quantification was done using Image Studio software (Version 3.1.4) (LI-COR, Inc.)

primary mouse microglia = assay: Viability assay, microglia; type: cell-based; conditions: absence of astrocytes, LPS/IFNγ
Text: FIGS. 5a-m. B4GALT6 in astrocytes regulates the activation of microglia and CNS-infiltrating monocytes. (a) Heatmap depicting mRNA expression, as determined by nCounter Nanostring analysis, in microglia from naïve or EAE NOD mice treated with PDMP or vehicle. Representative data of three independent experiments. Statistical analysis by Student's t-test. (b) qPCR analysis of ccl5, il1b, opn, nos2, cd40, and H2-Aa gene expression relative to Gapdh. (c, d) Mean normalized expression of genes associated with M1- or M2-phenotype in microglia (Table 3) (c) and Ly6C^high monocytes (d). Statistical analysis by Student's t-test. (e-h) primary microglia were pre-treated with PDMP, LacCer, or vehicle, followed by activation with LPS/IFNγ for 6 h or left un-treated (control) as in (FIG. 3a). mRNA expression was determined by nCounter Nanostring analysis (e, g), and microglial viability was determined (f, h). Representative data of five independent experiments. […] RNA was harvested from microglia treated in the absence [MG (pure)] or presence [MG (mixed)] of astrocytes and gene expression was analyzed by qPCR for the expression ccl2, ccl5 and nos2 relative to gapdh. […] Microglia were isolated as in (i), and microglial-nos2 expression was determined by qRT relative to gapdh and presented as in (i). […]

Molecule | EAE disease progression (EAE NOD mice; NOD EAE, i.c.v. 1×10^7 IU lentivirus at day 35) | EAE disease clinical symptoms (EAE NOD mice; NOD mice, 10 μg per mouse i.p. every 3 days from day 35 after EAE induction) | NF-κB translocation, LacCer added to PDMP (NF-κB (P65); LacCer + PDMP) | translocation of NF-κB to the nucleus (NF-κB (P65)) | viability of cultured primary mouse microglia (primary mouse microglia) | disease progression, axonal loss (EAE NOD mice; NOD EAE, 20 mg/kg i.p. twice a day from day 40, lumbar spinal cord, Bielschowsky's silver stain) | disease progression, demyelination (EAE NOD mice; NOD EAE, 20 mg/kg i.p. twice a day from day 40, lumbar spinal cord, Luxol fast blue) | disease progression, clinical score (EAE NOD mice; NOD EAE, 20 mg/kg i.p. twice a day from day 40 after EAE induction)
shB4galt6: lentivirus-delivered shRNA against b4galt6 (TRCN0000334278; SEQ ID NO:3) (guide CGATGGACTGAACAATTTATTCTCGAGAATAAATTGTTCAGTCCACG) | suppressed disease progression; also recorded: ameliorates disease severity |  |  |  |  |  |  | 
lactosylceramide [LacCer] |  | significant worsening of disease clinical symptoms | abrogated the inhibition induced by PDMP | triggered NF-M3 activation | neither the viability nor the response of cultured primary mouse microglia to LPS/IFNγ was affected |  |  | 
CCCCCCCCCC(=O)N[C@H](CN1CCOCC1)[C@H](O)c1ccccc1 [PDMP, D-threo-1-phenyl-2-decanoylamino-3-morpholino-1-propanol] |  |  |  | decreased translocation of NF-κB to the nucleus | neither the viability nor the response of cultured primary mouse microglia to LPS/IFNγ was affected | suppression of disease progression | suppression of disease progression | suppression of disease progression
